Experimental data taken from US11498885B2, “Use of pyrazole propargyl ethers as nitrification inhibitors” (BASF SE, priority 2018, dated 2022).

How the values were obtained:
nitrification = experiment: inhibition of nitrification in soil incubation test; assay type: cell-based, soil microbial biomass; conditions: 100 g soil, 10 mg ammoniumsulfate-N, 20° C., 14 days, best obtained NI value
Method: The compounds of the invention have been tested as follows in terms of the inhibition of nitrification: 100 g soil is filled into 500 ml plastic bottles (e.g. soil sampled from the field) and is moistened to 50% water holding capacity. The soil is incubated at 20° C. for two weeks to activate the microbial biomass. 1 ml test solution, containing the compound in the appropriate concentration (usually 0.3 or 1% of nitrogen N), or DMSO and 10 mg nitrogen in the form of ammoniumsulfate-N is added to the soil and everything mixed well. Bottles are capped but loosely to allow air exchange. The bottles are then incubated at 20° C. for 0 and 14 days. For analysis, 300 ml of a 1% K2SO4-solution is added to the bottle containing the soil and shaken for 2 hours in a horizontal shaker at 150 rpm. Then the whole solution is filtered through a filter (Macherey-Nagel Filter MN 807¼). Ammonium and nitrate content is then analyzed in the filtrate in an autoanalyzer at 550 nm (Merck, AA11). The inhibition (NI @ a specified concentration) is calculated as follows: [formula]

[1] = volatility of prior-art nitrification inhibitor; assay type: physicochemical; conditions: stated as disadvantageous for long-term applications

Row | Structure (SMILES) | NI* @ 0.3% (nitrification; compound at 0.3% of nitrogen N) | NI* @ 1% (nitrification; compound at 1% of nitrogen N) | volatility [1]
1 | C#CCOc1ccn[nH]1 [Compound 1] | 60.6 | 74.7 | 
2 | CCOc1cc(C)[nH]n1 [3-ethoxy-5-methylpyrazole] |  |  | high volatility
